Columns and labels:
[1] = biological target: T1, human NPY5 receptor (hY5R) (Homo sapiens, UniProt Q15761); assay: HTRF cAMP Gi assay, hY5R
T1 sequence (Q15761 1-445): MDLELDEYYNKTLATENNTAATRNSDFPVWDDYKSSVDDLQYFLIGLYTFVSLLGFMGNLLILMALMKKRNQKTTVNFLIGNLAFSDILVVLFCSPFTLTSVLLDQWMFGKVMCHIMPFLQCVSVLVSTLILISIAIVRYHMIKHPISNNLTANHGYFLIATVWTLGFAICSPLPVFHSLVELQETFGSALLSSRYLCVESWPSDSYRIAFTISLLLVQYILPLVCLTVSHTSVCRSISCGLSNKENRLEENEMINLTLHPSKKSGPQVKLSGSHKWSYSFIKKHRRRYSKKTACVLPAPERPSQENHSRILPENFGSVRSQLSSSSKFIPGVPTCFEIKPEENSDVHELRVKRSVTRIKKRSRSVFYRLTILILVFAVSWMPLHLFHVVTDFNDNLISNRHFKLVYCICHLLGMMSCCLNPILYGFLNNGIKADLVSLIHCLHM
Protocol: Briefly, the production of intracellular cAMP will generate a competition between unlabeled cAMP and exogenously added d2-cAMP for anti-cAMP antibodies conjugated to cryptate. CHO-K1 cells stably expressing the human NPY1, NPY2, NPY4 and NPY5 receptors were used with the cells brought to life from a frozen stock immediately before assay performance. 2000 cells per well were applied for all four NPY receptor subtype assays. A 384-well format was used applying a total volume of 20 μl using 5 μl cells, 2.5 μl peptide agonist, 2.5 μl forskolin and 5 μl of each of the fluorophores. […] Concentration-response evaluation of compounds was performed with 11 concentrations of agonist peptides (covering 3 decades). EC50 values were calculated by nonlinear regression using sigmoid concentration-response with variable slope.

[2] = biological target: T2, human NPY2 receptor (hY2R) (Homo sapiens, UniProt P49146); assay: HTRF cAMP Gi assay, hY2R
T2 sequence (P49146 1-381): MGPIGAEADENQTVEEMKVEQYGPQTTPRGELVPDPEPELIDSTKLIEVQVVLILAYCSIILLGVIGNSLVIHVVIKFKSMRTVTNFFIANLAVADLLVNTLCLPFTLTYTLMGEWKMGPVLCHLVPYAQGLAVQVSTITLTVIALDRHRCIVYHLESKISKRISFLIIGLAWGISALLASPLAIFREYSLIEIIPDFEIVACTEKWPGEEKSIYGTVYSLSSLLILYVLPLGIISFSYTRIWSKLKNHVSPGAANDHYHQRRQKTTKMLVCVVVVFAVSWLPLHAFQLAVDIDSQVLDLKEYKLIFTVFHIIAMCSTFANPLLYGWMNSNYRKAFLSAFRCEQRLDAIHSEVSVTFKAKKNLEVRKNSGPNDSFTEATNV
Description: The Homogenous Time Resolved fluorescence (HTRF) technology optimized for Gi coupled receptors has thoroughly been described in Cisbio cAMP Gi kit manual. Briefly, the production of intracellular cAMP will generate a competition between unlabeled cAMP and exogenously added d2-cAMP for anti-cAMP antibodies conjugated to cryptate. CHO-K1 cells stably expressing the human NPY1, NPY2, NPY4 and NPY5 receptors were used with the cells brought to life from a frozen stock immediately before assay performance. 2000 cells per well were applied for all four NPY receptor subtype assays. A 384-well format was used applying a total volume of 20 μl using 5 μl cells, 2.5 μl peptide agonist, 2.5 μl forskolin and 5 μl of each of the fluorophores. […] Concentration-response evaluation of compounds was performed with 11 concentrations of agonist peptides (covering 3 decades). EC50 values were calculated by nonlinear regression using sigmoid concentration-response with variable slope.

[3] = biological target: T3, Human Neuropeptide Y2 Receptor (Homo sapiens, UniProt P49146); assay: Radioligand binding competition assay (RLB); conditions: Table 3, 125I-PYY(1-36) competition; read-out: Ki
T3 construct: purchased CHEMICON HTS066M
T3 sequence (P49146 1-381): T2 sequence (P49146 1-381)
In short: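 Filtration binding assay on human Y2 receptor membrane preparation, 0.5 μg protein per well, in 50 mM HEPES pH 7.4 containing 5 mM MgCl2, 1 mM CaCl2 and 0.2% ovalbumin. Plates shake 2 h at room temperature before harvest and scintillation counting.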

Solubility determination = conditions: for Sol6: pH 6; for Sol7: pH 7
In short: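 Sample: TFA-salt peptide at 10 mg/ml target in 0.1 M Na diphosphate, pH 6.4 or 7.0, shaken 2 h RT, filtered, diluted to 1 mg/ml.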

| SMILES | EC50 [1] | EC50 [2] | Ki [3] | Sol6 (Solubility determination) | Sol7 (Solubility determination) |
| --- | --- | --- | --- | --- | --- |
| CC(C)CC(=O)N[C@@H](C)C(=O)N1CCC[C@H]1C(=O)N[C@@H](CCC(=O)O)C(=O)N[C@@H](CCCCNC(=O)CCCCCNC(=O)CC[C@H](NC(=O)CCCCCCCCCCCCCCCCC(=O)O)C(=O)O)C(=O)N1CCC[C@H]1C(=O)N[C@@H](CCC(=O)O)C(=O)N[C@@H](C)C(=O)N[C@@H](CC(=O)O)C(=O)N[C@@H](C)C(=O)N[C@@H](CO)C(=O)N1CCC[C@H]1C(=O)N[C@@H](CCC(=O)O)C(=O)N[C@@H](CCC(=O)O)C(=O)N[C@@H](CC(C)C)C(=O)N[C@@H](CCC(N)=O)C(=O)N[C@@H](CCCNC(=N)N)C(=O)N[C@@H](Cc1ccc(O)cc1)C(=O)N[C@@H](Cc1ccc(O)cc1)C(=O)N[C@H](C(=O)N[C@@H](CO)C(=O)N[C@@H](CC(C)C)C(=O)N[C@@H](CCCNC(=N)N)C(=O)N[C@@H](Cc1c[nH]cn1)C(=O)N[C@@H](Cc1ccc(O)cc1)C(=O)N[C@@H](Cc1ccc(O)cc1)C(=O)N[C@@H](CC(N)=O)C(=O)N[C@@H](Cc1c[nH]c2ccccc12)C(=O)N[C@@H](CC(C)C)C(=O)N[C@H](C(=O)N[C@@H](CCCNC(=N)N)C(=O)N[C@@H](CCC(N)=O)C(=O)N[C@@H](CCCNC(=N)N)C(=O)N[C@@H](Cc1ccc(O)cc1)C(N)=O)[C@@H](C)O)C(C)C [Compound 196, N{alpha-4}-(3-methylbutanoyl)-N{epsilon-7}-(6-[(4S)-4-carboxy-4-(17-carboxyheptadecanamido)butanamido]hexanoyl)-[4A,7K,9E,10A,18Q,22V,28Y,30W,31L]-hPYY(4-36)] | > 5000 nM | 0.086 nM | 3.57 nM | 8.4 mg/mL | 9.8 mg/mL |
| CC(C)CC(=O)N[C@@H](C)C(=O)N1CCC[C@H]1C(=O)N[C@@H](CCC(=O)O)C(=O)N[C@@H](CCCCNC(=O)CCCCCNC(=O)CC[C@H](NC(=O)CCCCCCCCCCCCCCCCC(=O)O)C(=O)O)C(=O)N1CCC[C@H]1C(=O)N[C@@H](CCC(=O)O)C(=O)N[C@@H](C)C(=O)N[C@@H](CC(=O)O)C(=O)N[C@@H](C)C(=O)N[C@@H](CCC(=O)O)C(=O)N1CCC[C@H]1C(=O)N[C@@H](CCC(=O)O)C(=O)N[C@@H](CCC(=O)O)C(=O)N[C@@H](CC(C)C)C(=O)N[C@@H](CCC(N)=O)C(=O)N[C@@H](CCCNC(=N)N)C(=O)N[C@@H](Cc1ccc(O)cc1)C(=O)N[C@@H](Cc1ccc(O)cc1)C(=O)N[C@H](C(=O)N[C@@H](CO)C(=O)N[C@@H](CC(C)C)C(=O)N[C@@H](CCCNC(=N)N)C(=O)N[C@@H](Cc1c[nH]cn1)C(=O)N[C@@H](Cc1ccc(O)cc1)C(=O)N[C@@H](Cc1ccc(O)cc1)C(=O)N[C@@H](CC(N)=O)C(=O)N[C@@H](Cc1c[nH]c2ccccc12)C(=O)N[C@@H](CC(C)C)C(=O)N[C@H](C(=O)N[C@@H](CCCNC(=N)N)C(=O)N[C@@H](CCC(N)=O)C(=O)N[C@@H](CCCNC(=N)N)C(=O)N[C@@H](Cc1ccc(O)cc1)C(N)=O)[C@@H](C)O)C(C)C [Compound 72, N{alpha-4}-(3-methylbutanoyl)-N{epsilon-7}-(6-[(4S)-4-carboxy-4-(17-carboxyheptadecanamido)butanamido]hexanoyl)-[4A,7K,9E,10A,13E,18Q,22V,28Y,30W,31L]-hPYY(4-36)] | > 5000 nM | 0.197 nM | 2.79 nM | 9.0 mg/mL | 9.2 mg/mL |
| CC(C)CC(=O)N[C@@H](C)C(=O)N1CCC[C@H]1C(=O)N[C@@H](CCC(=O)O)C(=O)N[C@@H](CCCCNC(=O)CCCCCNC(=O)CC[C@H](NC(=O)CCCCCCCCCCCCCCCCC(=O)O)C(=O)O)C(=O)N1CCC[C@H]1C(=O)N1CCC[C@H]1C(=O)N[C@@H](CCC(=O)O)C(=O)N[C@@H](CC(=O)O)C(=O)N[C@@H](C)C(=O)N[C@@H](CO)C(=O)N1CCC[C@H]1C(=O)N[C@@H](CCC(=O)O)C(=O)N[C@@H](CCC(=O)O)C(=O)N[C@@H](CC(C)C)C(=O)N[C@@H](CCC(N)=O)C(=O)N[C@@H](CCCNC(=N)N)C(=O)N[C@@H](Cc1ccc(O)cc1)C(=O)N[C@@H](Cc1ccc(O)cc1)C(=O)N[C@H](C(=O)N[C@@H](CO)C(=O)N[C@@H](CC(C)C)C(=O)N[C@@H](CCCNC(=N)N)C(=O)N[C@@H](Cc1c[nH]cn1)C(=O)N[C@@H](Cc1ccc(O)cc1)C(=O)N[C@@H](Cc1ccc(O)cc1)C(=O)N[C@@H](CC(N)=O)C(=O)N[C@@H](Cc1c[nH]c2ccccc12)C(=O)N[C@@H](CC(C)C)C(=O)N[C@H](C(=O)N[C@@H](CCCNC(=N)N)C(=O)N[C@@H](CCC(N)=O)C(=O)N[C@@H](CCCNC(=N)N)C(=O)N[C@@H](Cc1ccc(O)cc1)C(N)=O)[C@@H](C)O)C(C)C [Compound 14, N{alpha-4}-(3-methylbutanoyl)-N{epsilon-7}-(6-[(4S)-4-carboxy-4-(17-carboxyheptadecanamido)butanamido]hexanoyl)-[4A,7K,9P,18Q,22V,28Y,30W,31L]-hPYY(4-36)] | > 5000 nM | 0.086 nM | 1.28 nM | 9.3 mg/mL | 8.4 mg/mL |
| CC(C)CC(=O)N[C@@H](C)C(=O)N1CCC[C@H]1C(=O)N[C@@H](CCC(=O)O)C(=O)N[C@@H](CCCCNC(=O)CCCCCNC(=O)CC[C@H](NC(=O)CCCCCCCCCCCCCCCCC(=O)O)C(=O)O)C(=O)N1CCC[C@H]1C(=O)N[C@@H](CCC(=O)O)C(=O)N[C@@H](CCC(=O)O)C(=O)N[C@@H](CCC(=O)O)C(=O)N[C@@H](C)C(=O)N[C@H](C(=O)N1CCC[C@H]1C(=O)N[C@@H](CCC(=O)O)C(=O)N[C@@H](CCC(=O)O)C(=O)N[C@@H](CC(C)C)C(=O)N[C@@H](CCC(N)=O)C(=O)N[C@@H](CCCNC(=N)N)C(=O)N[C@@H](Cc1ccc(O)cc1)C(=O)N[C@@H](Cc1ccc(O)cc1)C(=O)N[C@H](C(=O)N[C@@H](CO)C(=O)N[C@@H](CC(C)C)C(=O)N[C@@H](CCCNC(=N)N)C(=O)N[C@@H](Cc1c[nH]cn1)C(=O)N[C@@H](Cc1ccc(O)cc1)C(=O)N[C@@H](Cc1ccc(O)cc1)C(=O)N[C@@H](CC(N)=O)C(=O)N[C@@H](Cc1c[nH]c2ccccc12)C(=O)N[C@@H](CC(C)C)C(=O)N[C@H](C(=O)N[C@@H](CCCNC(=N)N)C(=O)N[C@@H](CCC(N)=O)C(=O)N[C@@H](CCCNC(=N)N)C(=O)N[C@@H](Cc1ccc(O)cc1)C(N)=O)[C@@H](C)O)C(C)C)[C@@H](C)O [Compound 146, N{alpha-4}-(3-methylbutanoyl)-N{epsilon-7}-(6-[(4S)-4-carboxy-4-(17-carboxyheptadecanamido)butanamido]hexanoyl)-[4A,7K,9E,11E,13T,18Q,22V,28Y,30W,31L]-hPYY(4-36)] | > 5000 nM | 0.13 nM | 8.93 nM | 9.8 mg/mL | 9.6 mg/mL |

From US12391737B2, “Soluble NPY2 receptor agonists” (Boehringer Ingelheim International GmbH, priority 2020, dated 2025)
